Each structure is given as a SMILES string. *1 amine or outer side, *2 acyl side, *3 side chain or, on linkers, in order; H or OH if unused. Where a SMILES comes first, the peptide text is derived from it. [ ]: non-standard residue; d: D form. The star is where a group is joined. Butyryl(4-indol-3-yl) = O=C(CCCc1c[nH]c2ccccc12)*; Acetyl(2-naphthyloxy) = O=C(COc1ccc2ccccc2c1)*; Dibenzylacetyl = O=C(C(Cc1ccccc1)Cc1ccccc1)*; X5 = O=C(C(Cc1cccc2ccccc12)Cc1cccc2ccccc12)*; Acetyl(2-naphthyl) = O=C(Cc1ccc2ccccc2c1)*; X7 = O=C(CN1CCC(C(=O)*)CC1)c1ccc2ccccc2c1; 2Naphthoyl = O=C(c1ccc2ccccc2c1)*; NMeI = CC[C@H](C)[C@H](NC)C(=O)O; X1 = O=C(Cc1ccc(N[*:1])cc1)[*:2]; tBuAla = CC(C)(C)C[C@H](N)C(=O)O; Cit = NC(=O)NCCC[C@H](N)C(=O)O; Phg = N[C@H](C(=O)O)c1ccccc1; Tle = CC(C)(C)[C@H](N)C(=O)O; 4Abz = Nc1ccc(C(=O)O)cc1; Orn = NCCC[C@H](N)C(=O)O; Inp = O=C(O)C1CCNCC1; GABA = NCCCC(=O)O; βAla = NCCC(=O)O; X3 = CCC(C)CN*

The target of one experiment is T1, specific ANP receptor sites on BASM or BAE cells (Bos taurus, UniProt P10730).
T1 construct: specific receptor sites on BASM or BAE cells; endogenous in cells; host or cells: cultured BASM and BAE cells
T1 sequence (P10730 42-537): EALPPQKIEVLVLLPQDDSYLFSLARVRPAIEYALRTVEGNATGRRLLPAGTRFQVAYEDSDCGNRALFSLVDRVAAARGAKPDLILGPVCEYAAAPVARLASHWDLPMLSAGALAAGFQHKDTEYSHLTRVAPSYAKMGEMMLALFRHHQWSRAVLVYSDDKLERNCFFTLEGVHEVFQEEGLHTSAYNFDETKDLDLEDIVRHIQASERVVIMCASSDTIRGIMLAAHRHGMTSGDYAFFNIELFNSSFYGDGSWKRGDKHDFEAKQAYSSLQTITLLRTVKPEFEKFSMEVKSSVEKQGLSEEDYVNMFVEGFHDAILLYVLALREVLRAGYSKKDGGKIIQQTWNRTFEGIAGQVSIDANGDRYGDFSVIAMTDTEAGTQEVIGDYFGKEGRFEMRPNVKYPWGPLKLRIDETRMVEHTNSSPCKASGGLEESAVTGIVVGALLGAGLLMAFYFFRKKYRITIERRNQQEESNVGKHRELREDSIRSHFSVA
The experiment is described as follows: Competitive displacement receptor binding of (125I)-rANP(126-150) on cultured cells. On the set-up: species or system bovine.
Settings: not given
An excerpt:
Analogous "competitive displacement" receptor binding assays are considered commonplace in the art for examining specific ligand-receptor interactions.
Assuming these ANP analogs act at one or more ANP receptor sites, then increased receptor affinity should reflect increased biological potency.
Turning to `CC[C@H](C)[C@H](NC(=O)[C@H](CCCNC(=N)N)NC(=O)[C@H](CC(=O)O)NC(=O)[C@@H](NC(=O)[C@H](CCCNC(=N)N)NC(=O)CNC(=O)CNC(=O)Cc1ccc2ccccc2c1)c1ccccc1)C(N)=O` [AP575, (2-NA)--G--G--R--Phg--D--R--I--NH2] ({Acetyl(2-naphthyl)}-GGR[Phg]DRI-NH2), the “receptor binding / activity as judged by Ki, in words” value is “very low, if any, activity”.

The same experiment, now with this note: concentration of unlabeled peptide displacing 50% of maximal binding of 0.5 nM (125I)-rANP(126-150); BASM or BAE cells.
`CC[C@H](C)[C@H](NC(=O)[C@H](CCCNC(=N)N)NC(=O)[C@H](CC(=O)O)NC(=O)[C@@H](NC(=O)[C@H](CCCNC(=N)N)NC(=O)CNC(=O)CCCc1c[nH]c2ccccc12)[C@@H](C)CC)C(=O)NCC(=O)N[C@@H](C)C(N)=O` [AP531, (3-IB)--G--R--I--D--R--I--G--A--NH2)] ({Butyryl(4-indol-3-yl)}-GRIDRIGA-NH2): the “Ki(app)” value came to 9.34 nM. For `CC[C@H](C)[C@H](NC(=O)[C@H](CCCNC(=N)N)NC(=O)[C@H](CC(=O)O)NC(=O)[C@@H](NC(=O)[C@H](CCCNC(=N)N)NC(=O)CCNC(=O)CCCc1c[nH]c2ccccc12)[C@@H](C)CC)C(=O)NCC(=O)N[C@@H](C)C(N)=O` [AP532, (3-IB)--beta--Ala--R--I--D--R--I--G--A--NH2)] ({Butyryl(4-indol-3-yl)-βAla}-RIDRIGA-NH2), the “Ki(app)” value was 11.95 nM. Same read-out and setting: under `CC[C@H](C)[C@H](NC(=O)[C@H](CCCNC(=N)N)NC(=O)[C@H](CC(=O)O)NC(=O)[C@@H](NC(=O)[C@H](CCCNC(=N)N)NC(=O)CNC(=O)CNC(=O)C(Cc1cccc2ccccc12)Cc1cccc2ccccc12)[C@@H](C)CC)C(=O)NCC(=O)N[C@@H](C)C(N)=O` [AP533] (X5-GGRIDRIGA-NH2) stands 52.0 nM.

Regarding `CC[C@H](C)[C@H](NC(=O)[C@H](CCCNC(=N)N)NC(=O)[C@H](CC(=O)O)NC(=O)[C@@H](NC(=O)[C@H](CCCNC(=N)N)NC(=O)CNC(=O)CNC(=O)C(Cc1ccccc1)Cc1ccccc1)[C@@H](C)CC)C(=O)NCC(=O)N[C@@H](C)C(N)=O` [AP534, (DBA)--G--G--R-- I--D--R--I--G--A--NH2)] (Dibenzylacetyl-GGRIDRIGA-NH2), the “Ki(app)” value was found to be 8.81 nM. Same read-out and setting: under `CC[C@H](C)[C@H](NC(=O)[C@H](CCCNC(=N)N)NC(=O)CNC(=O)CNC(=O)Cc1ccc2ccccc2c1)C(=O)N[C@@H](CC(=O)O)C(=O)N[C@@H](CCCNC(=N)N)C(=O)N[C@@H](C(N)=O)C(C)C` [AP535, (2-NA)--G--G--R--I--D--R--V^ --NH2)] ({Acetyl(2-naphthyl)}-GGRIDR[dV]-NH2) stands 14.0 nM. Still for that read-out and setting: under `CC[C@H](C)[C@H](NC(=O)[C@H](CCCNC(=N)N)NC(=O)CNC(=O)CNC(=O)Cc1ccc2ccccc2c1)C(=O)N[C@@H](CC(=O)O)C(=O)N[C@@H](CCCNC(=N)N)C(=O)N[C@H](CC(C)C)C(N)=O` [AP536, (2-NA)--G--G--R--I--D--R--L^ --NH2)] ({Acetyl(2-naphthyl)}-GGRIDR[dL]-NH2) stands 106.4 nM; under `CC[C@H](C)[C@H](NC(=O)[C@H](CCCNC(=N)N)NC(=O)CNC(=O)CNC(=O)Cc1ccc2ccccc2c1)C(=O)N[C@@H](CC(=O)O)C(=O)N[C@@H](CCCNC(=N)N)C(=O)N[C@H](Cc1ccccc1)C(N)=O` [AP537, (2-NA)--G--G--R--I--D--R--F^ --NH2)] ({Acetyl(2-naphthyl)}-GGRIDR[dF]-NH2), above 160 nM; under `CC[C@H](C)[C@H](NC(=O)[C@H](CCCNC(=N)N)NC(=O)[C@H](CC(=O)O)NC(=O)[C@@H](NC(=O)[C@H](CCCNC(=N)N)NC(=O)C1CCN(C(=O)Cc2ccc3ccccc3c2)CC1)[C@@H](C)CC)C(N)=O` [AP538] ({Acetyl(2-naphthyl)-Inp}-RIDRI-NH2), 9.9 nM. Regarding `CC[C@H](C)[C@H](NC(=O)[C@H](CCCNC(=N)N)NC(=O)[C@H](CC(=O)O)NC(=O)[C@@H](NC(=O)[C@H](CCCNC(=N)N)NC(=O)C1CCN(C(=O)COc2ccc3ccccc3c2)CC1)[C@@H](C)CC)C(N)=O` [AP539] ({Acetyl(2-naphthyloxy)-Inp}-RIDRI-NH2), the “Ki(app)” value is 9.1 nM. The same measure, in the same setting: under `CCC(C)CNC(=O)[C@H](CCCNC(=N)N)NC(=O)[C@H](CC(=O)O)NC(=O)[C@@H](NC(=O)[C@H](CCCNC(=N)N)NC(=O)C1CCN(C(=O)Cc2ccc3ccccc3c2)CC1)[C@@H](C)CC` (stereo partly drawn) [AP557] ({Acetyl(2-naphthyl)-Inp}-RIDR-X3) stands 41.7 nM; under `CC[C@H](C)[C@H](NC(=O)[C@H](CCCNC(=N)N)NC(=O)[C@H](CC(=O)O)NC(=O)[C@@H](NC(=O)[C@H](CCCNC(=N)N)NC(=O)c1ccc(NC(=O)Cc2ccc3ccccc3c2)cc1)[C@@H](C)CC)C(N)=O` [AP560] ({Acetyl(2-naphthyl)-4Abz}-RIDRI-NH2), 68.8 nM. The same measure, in the same setting: with `CC[C@H](C)[C@H](NC(=O)[C@H](CCCNC(=N)N)NC(=O)[C@H](CC(=O)O)NC(=O)[C@@H](NC(=O)[C@H](CCCNC(=N)N)NC(=O)C1CCN(C(=O)c2ccc3ccccc3c2)CC1)[C@@H](C)CC)C(N)=O` [AP562] ({2Naphthoyl-Inp}-RIDRI-NH2) the figure was 22.4 nM; with `CC[C@H](C)[C@H](NC(=O)[C@H](CCCNC(=N)N)NC(=O)[C@H](CC(=O)O)NC(=O)[C@@H](NC(=O)[C@H](CCCNC(=N)N)NC(=O)Cc1ccc(NC(=O)Cc2ccc3ccccc3c2)cc1)[C@@H](C)CC)C(N)=O` [AP564] ({Acetyl(2-naphthyl)}-[X1]RIDRI-NH2), 10.1 nM; with `CC[C@H](C)[C@H](NC(=O)[C@H](CCCNC(=N)N)NC(=O)[C@H](CC(=O)O)NC(=O)[C@@H](NC(=O)[C@H](CCCNC(=N)N)NC(=O)C1CCN(CC(=O)c2ccc3ccccc3c2)CC1)[C@@H](C)CC)C(N)=O` [AP574] (X7-RIDRI-NH2), 26.5 nM. Still for that read-out and setting: under `CC[C@H](C)[C@H](NC(=O)[C@H](CCCNC(=N)N)NC(=O)[C@H](CC(=O)O)NC(=O)[C@@H](NC(=O)[C@H](CCCNC(=N)N)NC(=O)CNC(=O)CNC(=O)Cc1ccc2ccccc2c1)c1ccccc1)C(N)=O` [AP575, (2-NA)--G--G--R--Phg--D--R--I--NH2] ({Acetyl(2-naphthyl)}-GGR[Phg]DRI-NH2) stands 194.0 nM; under `CC[C@H](C)[C@H](NC(=O)[C@H](CCCNC(=N)N)NC(=O)[C@H](CC(=O)O)NC(=O)[C@@H](NC(=O)[C@H](CCCNC(=N)N)NC(=O)CCCNC(=O)COc1ccc2ccccc2c1)[C@@H](C)CC)C(=O)NCC(=O)N[C@@H](C)C(N)=O` [AP576, (2-NOA)--NH(CH2)3 CO--R--I--D--R--I--G--A--NH2] ({Acetyl(2-naphthyloxy)-GABA}-RIDRIGA-NH2), 16.0 nM. As to `CC[C@H](C)[C@H](NC(=O)[C@H](CCCNC(=N)N)NC(=O)[C@H](CC(=O)O)NC(=O)[C@H](CC(C)(C)C)NC(=O)[C@H](CCCNC(=N)N)NC(=O)CNC(=O)CNC(=O)Cc1ccc2ccccc2c1)C(N)=O` [AP590, (2-NA)--G--G--R--tBuA--D--R--I--NH2] ({Acetyl(2-naphthyl)}-GGR[tBuAla]DRI-NH2), the “Ki(app)” value is 12.0 nM. On the same count and under the same terms, under `CC[C@H](C)[C@H](NC(=O)[C@H](CCCNC(=N)N)NC(=O)[C@H](CC(=O)O)NC(=O)[C@@H](NC(=O)[C@H](CCCNC(=N)N)NC(=O)CNC(=O)CNC(=O)Cc1ccc2ccccc2c1)C(C)(C)C)C(N)=O` [AP591, (2-NA)--G--G--R--tBuG--D--R--I--NH2] ({Acetyl(2-naphthyl)}-GGR[Tle]DRI-NH2) stands 14.0 nM; under `CC[C@H](C)[C@H](NC(=O)[C@H](CCCN)NC(=O)[C@H](CC(=O)O)NC(=O)[C@@H](NC(=O)[C@H](CCCNC(=N)N)NC(=O)CNC(=O)CNC(=O)Cc1ccc2ccccc2c1)[C@@H](C)CC)C(N)=O` [AP592, (2-NA)--G--G--R--I--D--Orn--I--NH2] ({Acetyl(2-naphthyl)}-GGRID[Orn]I-NH2), 25.0 nM; under `CC[C@H](C)[C@H](NC(=O)[C@H](CCCNC(N)=O)NC(=O)[C@H](CC(=O)O)NC(=O)[C@@H](NC(=O)[C@H](CCCNC(=N)N)NC(=O)CNC(=O)CNC(=O)Cc1ccc2ccccc2c1)[C@@H](C)CC)C(N)=O` [AP593, (2-NA)--G--G--R--I--D--Cit--I--NH2] ({Acetyl(2-naphthyl)}-GGRID[Cit]I-NH2), 55.0 nM.

With `CC[C@H](C)[C@H](NC(=O)[C@H](CCCNC(=N)N)NC(=O)CNC(=O)CNC(=O)Cc1ccc2ccccc2c1)C(=O)N[C@@H](CC(=O)O)C(=O)N[C@@H](CCCNC(=N)N)C(=O)N[C@@H](CC(C)(C)C)C(N)=O` [AP594, (2-NA)--G--G--R--I--D--R--tBuA--NH2] ({Acetyl(2-naphthyl)}-GGRIDR[tBuAla]-NH2), the “Ki(app)” value was determined as 15.0 nM.

For `CC[C@H](C)[C@H](NC(=O)[C@H](CCCNC(=N)N)NC(=O)CNC(=O)CNC(=O)Cc1ccc2ccccc2c1)C(=O)N[C@@H](CC(=O)O)C(=O)N[C@@H](CCCNC(=N)N)C(=O)N[C@H](C(N)=O)c1ccccc1` [AP595, (2-NA)--G--G-- R--I--D--R--Phg--NH2] ({Acetyl(2-naphthyl)}-GGRIDR[Phg]-NH2), the “Ki(app)” value stood at 100.0 nM. On the same count and under the same terms, with `CCNC(=O)[C@H]([C@@H](C)CC)N(C)C(=O)[C@H](CCCNC(=N)N)NC(=O)[C@H](CC(=O)O)NC(=O)[C@@H](NC(=O)[C@H](CCCNC(=N)N)NC(=O)CNC(=O)CNC(=O)Cc1ccc2ccccc2c1)[C@@H](C)CC` [AP596, (2-NA)--G--G--R--I--D--R--NMeIle--NH(ethyl)] ({Acetyl(2-naphthyl)}-GGRIDR[NMeI]-NHEt) the figure was 87.3 nM.

Source of the values: patent publication US5047397A, “Linear analogs of atrial natriuretic peptides” (California Biotechnology Inc., priority 1988, dated 1991).
